# Source: ChEMBL document CHEMBL1148459, “1-alkyl-4-acylpiperazines as a new class of imidazole-free histamine H(3) receptor antagonists” (J Med Chem, 2004)
# Target: Histamine H3 receptor (Homo sapiens, UniProt Q9Y5N1)
# Experiment: Antagonist potency against human histamine H3 receptor expressed in CHO cells was determined by GTPgamma-S-assay
# Type: functional, cell-based
# Sequence of Histamine H3 receptor (Q9Y5N1 whole entry): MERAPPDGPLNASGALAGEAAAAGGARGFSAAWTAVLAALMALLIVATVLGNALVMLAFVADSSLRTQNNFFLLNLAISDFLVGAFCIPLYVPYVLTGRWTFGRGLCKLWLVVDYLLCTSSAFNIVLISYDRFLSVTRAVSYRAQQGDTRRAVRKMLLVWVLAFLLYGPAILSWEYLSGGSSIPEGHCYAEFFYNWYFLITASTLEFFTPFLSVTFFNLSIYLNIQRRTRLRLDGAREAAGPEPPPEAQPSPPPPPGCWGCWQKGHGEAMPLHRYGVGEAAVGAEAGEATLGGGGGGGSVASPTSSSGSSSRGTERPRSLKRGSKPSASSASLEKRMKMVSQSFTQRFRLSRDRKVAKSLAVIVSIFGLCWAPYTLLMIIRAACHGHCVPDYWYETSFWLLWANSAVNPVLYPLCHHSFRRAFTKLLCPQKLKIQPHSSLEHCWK
row,Ki,SMILES
1,0.74 nM,CCC(CC)N1CCN(C(=O)CCOc2ccc(C#N)cc2)CC1
2,0.43 nM,CCC(CC)N1CCN(C(=O)CCC(=O)c2ccc(OC)c(F)c2)CC1
3,2.7 nM,CCC(CC)N1CCN(C(=O)CCC(=O)c2ccc(OC(F)(F)F)cc2)CC1
4,93 nM,CCC(CC)N1CCN(C(=O)c2ccc(OC(F)(F)F)cc2)CC1
5,8.5 nM,CCC(CC)N1CCN(C(=O)CCc2ccc(C(F)(F)F)cc2)CC1
6,1.4 nM,CCC(CC)N1CCN(C(=O)CCC(=O)c2ccc(C(F)(F)F)cc2)CC1
7,1.5 nM,CCC(CC)N1CCN(C(=O)CCC(=O)c2ccc(F)cc2)CC1
8,0.86 nM,CCC(CC)N1CCN(C(=O)CCC(=O)c2ccc(Cl)cc2)CC1
9,1.2 nM,CCC(CC)N1CCN(C(=O)CCOc2ccc(Cl)cc2)CC1
10,89 nM,C#CC(C)(C)N1CCN(C(=O)CCC(=O)c2ccc(Cl)cc2)CC1
11,0.54 nM,CCC(C)(C)N1CCN(C(=O)CCC(=O)c2ccc(Cl)cc2)CC1
12,480 nM,CCCC(CCC)N1CCN(C(=O)CCC(=O)c2ccc(Cl)cc2)CC1
13,13.3 nM,O=C(CCC(=O)N1CCN(C2CC2)CC1)c1ccc(Cl)cc1
14,3.6 nM,O=C(CCC(=O)N1CCN(C2CCCCC2)CC1)c1ccc(Cl)cc1
15,450 nM,O=C(CCC(=O)N1CCN(C2CCCCCCC2)CC1)c1ccc(Cl)cc1
16,8.3 nM,O=C(CCC(=O)N1CCN(CC2CC2)CC1)c1ccc(Cl)cc1
17,4.4 nM,CC(C)N1CCN(C(=O)CCC(=O)c2ccc(Cl)cc2)CC1
18,9.2 nM,O=C(CCC(=O)N1CCN(C2CCOCC2)CC1)c1ccc(Cl)cc1
19,34 nM,O=C(CCC(=O)N1CCN(C2CCCCCC2)CC1)c1ccc(Cl)cc1
20,1.2 nM,O=C(CCC(=O)N1CCN(C2CCC2)CC1)c1ccc(Cl)cc1

row,SMILES,Ki
1,CCC(CC)N1CCN(C(=O)Cc2ccc(N(C)C)cc2)CC1,0.96 nM
2,CCC(CC)N1CCN(C(=O)Cc2ccc(C(C)=O)cc2)CC1,24 nM
3,CCC(CC)N1CCN(C(=O)COc2ccc(OC(F)(F)F)cc2)CC1,110 nM
4,CCC(CC)N1CCN(C(=O)Cc2ccc(-c3ccccc3)cc2)CC1,2.9 nM
5,CCC(CC)N1CCN(C(=O)Cc2ccc(OC(F)(F)F)cc2)CC1,2.6 nM
6,CCC(CC)N1CCN(C(=O)Cc2ccc(C(F)(F)F)cc2)CC1,2.3 nM
